Consider two compounds from PubChem BioAssay (NCI).

SMILES strings stand for the structures.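 Each compound was tested at five concentrations against cells in 96-well plates for 48 hours. GI50: concentration for 50% inhibition of growth. At the TGI there is no net growth.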

Among the test systems are HOP-92 NSCLC; HT29 colon; MOLT-4 leukemia; NCI-H522 lung; OVCAR-5 ovarian; SF-268 CNS; SK-MEL-2 melanoma; SNB-75 CNS; SR leukemia; UACC-257 melanoma.
Holding throughout (test): inhibition of tumour cell growth, NCI panel, 48 h

`COC(=O)[C@H](C)NC(=O)NC(=O)NC(=O)CI`: the GI50 in the assay with HOP-92 NSCLC is 6.79 µM; with HT29 colon, 18.1 µM; in the assay with MOLT-4 leukemia it was 2.21 µM; with NCI-H522 lung, 1.96 µM; in the assay on OVCAR-5 ovarian, 16.7 µM; in the assay on SF-268 CNS, 17.2 µM. For the same compound, the GI50 is 15.4 µM in the assay with SK-MEL-2 melanoma, 15.9 µM with SNB-75 CNS, 2.43 µM in the assay on SR leukemia and 15.8 µM in the assay with UACC-257 melanoma. Besides, the TGI in the assay on HOP-92 NSCLC came out at 19.7 µM; in the assay on HT29 colon, 36.4 µM; in the assay with MOLT-4 leukemia, 5.17 µM; in the assay on NCI-H522 lung it was 3.68 µM; in the assay on OVCAR-5 ovarian, 36 µM; in the assay with SF-268 CNS, 36.3 µM. Also, the TGI turned out to be 29.9 µM with SK-MEL-2 melanoma, 30.3 µM in the assay on SNB-75 CNS, 5.94 µM in the assay with SR leukemia and 29.9 µM in the assay on UACC-257 melanoma.
Take `CC(C)(C)c1cc(C(C)(C)C)cc(S(=O)(=O)Nc2cc3ccccc3cc2C(=O)NCCN)c1`: the GI50 in the assay with HOP-92 NSCLC is 1.73 µM; with HT29 colon, 1.93 µM; with MOLT-4 leukemia, 2.32 µM; with NCI-H522 lung it was 1.8 µM; with OVCAR-5 ovarian, 1.94 µM; in the assay with SF-268 CNS, 1.68 µM. For the same compound, the GI50 is 1.92 µM in the assay with SK-MEL-2 melanoma, 1.58 µM in the assay on SNB-75 CNS, 1.9 µM in the assay on SR leukemia and 2.09 µM in the assay on UACC-257 melanoma. Moreover, the TGI with HOP-92 NSCLC is 3.24 µM; in the assay on HT29 colon it was 3.95 µM; in the assay on MOLT-4 leukemia, 5.77 µM; in the assay with NCI-H522 lung, 3.72 µM; in the assay with OVCAR-5 ovarian it was 4.49 µM; in the assay with SF-268 CNS, 3.35 µM. In addition, the TGI in the assay on SK-MEL-2 melanoma is 3.87 µM; with SNB-75 CNS it was 4.16 µM; with SR leukemia, 4.43 µM; in the assay on UACC-257 melanoma, 4.02 µM.
